Results as given in ChEMBL document CHEMBL1201862, “PubChem BioAssay data set” (2004).
The source made the active and inactive calls.

Legend:
[1] = A cytotoxicity screen of small molecule inhibitors of the PhoP region in Salmonella typhi identified in the primary screen. [Related pubchem assays: 1850, 1864, 1985 ]; type: functional
[2] = molecular target: T1, Endoribonuclease toxin MazF (Escherichia coli K-12, UniProt P0AE70); assay: MazF toxin RNase activators, dose response, biochemical, fluorescence, single-stranded RNA substrate, uHTS hits (AID 588481); type: functional
T1 sequence (P0AE70 whole entry): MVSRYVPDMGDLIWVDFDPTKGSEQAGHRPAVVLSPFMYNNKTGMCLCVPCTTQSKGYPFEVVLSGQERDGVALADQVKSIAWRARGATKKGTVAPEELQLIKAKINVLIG

[3] = molecular target: T1, Endoribonuclease toxin MazF; assay: fluorescent RNA oligo signal without MazF, dose response, counter-screen for MazEF activator project, biochemical, fluorescence, single-stranded RNase substrate (AID 588502); type: functional
[4] = molecular target: T2, DNA repair protein RAD52 homolog (Homo sapiens, UniProt P43351); type: functional, biochemical
T2 sequence (P43351 whole entry): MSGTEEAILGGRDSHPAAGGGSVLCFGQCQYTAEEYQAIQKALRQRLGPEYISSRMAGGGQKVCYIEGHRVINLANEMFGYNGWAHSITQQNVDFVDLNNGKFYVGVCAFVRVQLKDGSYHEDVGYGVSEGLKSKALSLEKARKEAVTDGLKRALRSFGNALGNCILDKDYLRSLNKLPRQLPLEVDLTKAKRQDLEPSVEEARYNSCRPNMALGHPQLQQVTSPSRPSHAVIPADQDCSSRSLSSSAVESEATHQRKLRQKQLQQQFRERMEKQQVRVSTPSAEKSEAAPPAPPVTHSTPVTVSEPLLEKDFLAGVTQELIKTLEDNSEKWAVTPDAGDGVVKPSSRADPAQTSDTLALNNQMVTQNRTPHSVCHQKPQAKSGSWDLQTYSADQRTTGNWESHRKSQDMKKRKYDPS

[5] = molecular target: 72 kDa type IV collagenase (Homo sapiens, UniProt P08253); assay: Dose Response validation of uHTS RPN11 inhibitor hits using a MMP-2 Fluorescence assay.; type: functional
72 kDa type IV collagenase, sequence (P08253 whole entry): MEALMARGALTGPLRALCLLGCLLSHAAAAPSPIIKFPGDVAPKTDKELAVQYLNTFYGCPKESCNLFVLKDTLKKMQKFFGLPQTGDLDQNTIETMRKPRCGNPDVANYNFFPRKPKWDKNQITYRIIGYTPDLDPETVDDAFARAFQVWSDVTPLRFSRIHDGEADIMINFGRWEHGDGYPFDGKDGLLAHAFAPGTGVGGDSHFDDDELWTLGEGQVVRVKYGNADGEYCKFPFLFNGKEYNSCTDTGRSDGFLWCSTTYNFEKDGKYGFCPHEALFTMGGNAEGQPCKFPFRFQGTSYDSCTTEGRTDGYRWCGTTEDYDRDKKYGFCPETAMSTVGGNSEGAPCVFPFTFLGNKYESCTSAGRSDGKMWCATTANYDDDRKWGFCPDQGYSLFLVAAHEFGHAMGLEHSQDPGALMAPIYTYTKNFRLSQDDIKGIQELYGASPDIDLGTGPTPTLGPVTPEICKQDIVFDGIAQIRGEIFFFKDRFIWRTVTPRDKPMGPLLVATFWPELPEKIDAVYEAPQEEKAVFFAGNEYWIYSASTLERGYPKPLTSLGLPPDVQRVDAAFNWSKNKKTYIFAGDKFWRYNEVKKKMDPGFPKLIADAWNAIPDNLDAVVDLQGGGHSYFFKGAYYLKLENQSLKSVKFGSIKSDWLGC

[6] = molecular target: 26S proteasome non-ATPase regulatory subunit 14 (Homo sapiens, UniProt O00487); assay: inhibition of proteasome subunit RPN11 – biochemical, fluorescence polarization, uHTS hits, confirmation (AID 602368); type: functional
26S proteasome non-ATPase regulatory subunit 14, sequence (O00487 whole entry): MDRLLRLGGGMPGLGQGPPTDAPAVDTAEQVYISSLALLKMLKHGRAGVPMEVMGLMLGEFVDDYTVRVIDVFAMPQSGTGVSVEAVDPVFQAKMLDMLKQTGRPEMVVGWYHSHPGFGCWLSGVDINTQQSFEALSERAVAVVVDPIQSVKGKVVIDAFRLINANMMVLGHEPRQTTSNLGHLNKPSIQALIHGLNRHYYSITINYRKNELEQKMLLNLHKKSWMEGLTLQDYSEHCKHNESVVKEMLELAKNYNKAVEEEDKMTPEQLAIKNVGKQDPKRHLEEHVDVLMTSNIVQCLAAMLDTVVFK

Prothrombin = Prothrombin (Bos taurus, UniProt P00735); assay: thrombin inhibition, dose response, biochemical, fluorescence polarization, uHTS hits (AID 602369); type: functional
Cytochrome P450 3A4 = Cytochrome P450 3A4 (Homo sapiens, UniProt P08684); conditions: Potency;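 note: confirmatory qHTS run detecting inhibitors and substrates of CYP3A4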
Cytochrome P450 3A4, sequence (P08684 whole entry): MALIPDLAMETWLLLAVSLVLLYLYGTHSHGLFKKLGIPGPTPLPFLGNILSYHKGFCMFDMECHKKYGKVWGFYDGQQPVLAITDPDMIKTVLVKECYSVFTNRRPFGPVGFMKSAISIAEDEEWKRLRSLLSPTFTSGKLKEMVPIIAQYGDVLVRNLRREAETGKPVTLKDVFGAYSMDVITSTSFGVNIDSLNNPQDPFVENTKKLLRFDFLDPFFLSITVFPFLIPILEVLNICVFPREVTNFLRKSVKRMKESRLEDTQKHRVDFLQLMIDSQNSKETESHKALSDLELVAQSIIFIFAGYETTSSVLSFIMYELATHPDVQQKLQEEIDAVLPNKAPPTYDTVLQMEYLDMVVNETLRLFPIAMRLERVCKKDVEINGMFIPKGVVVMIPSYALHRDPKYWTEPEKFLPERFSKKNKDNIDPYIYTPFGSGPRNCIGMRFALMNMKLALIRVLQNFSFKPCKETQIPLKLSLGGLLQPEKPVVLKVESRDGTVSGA

[7] = HEp-2 cell cytotoxicity, dose response, cytotoxicity control for RSV inhibitor project, HTS (AID 2410); type: functional; conditions: human respiratory syncytial virus
Beta-galactosidase = Beta-galactosidase (Escherichia coli, UniProt Q8VNN2); assay: PubChem AID 485352; type: functional
Beta-galactosidase, sequence (Q8VNN2 whole entry): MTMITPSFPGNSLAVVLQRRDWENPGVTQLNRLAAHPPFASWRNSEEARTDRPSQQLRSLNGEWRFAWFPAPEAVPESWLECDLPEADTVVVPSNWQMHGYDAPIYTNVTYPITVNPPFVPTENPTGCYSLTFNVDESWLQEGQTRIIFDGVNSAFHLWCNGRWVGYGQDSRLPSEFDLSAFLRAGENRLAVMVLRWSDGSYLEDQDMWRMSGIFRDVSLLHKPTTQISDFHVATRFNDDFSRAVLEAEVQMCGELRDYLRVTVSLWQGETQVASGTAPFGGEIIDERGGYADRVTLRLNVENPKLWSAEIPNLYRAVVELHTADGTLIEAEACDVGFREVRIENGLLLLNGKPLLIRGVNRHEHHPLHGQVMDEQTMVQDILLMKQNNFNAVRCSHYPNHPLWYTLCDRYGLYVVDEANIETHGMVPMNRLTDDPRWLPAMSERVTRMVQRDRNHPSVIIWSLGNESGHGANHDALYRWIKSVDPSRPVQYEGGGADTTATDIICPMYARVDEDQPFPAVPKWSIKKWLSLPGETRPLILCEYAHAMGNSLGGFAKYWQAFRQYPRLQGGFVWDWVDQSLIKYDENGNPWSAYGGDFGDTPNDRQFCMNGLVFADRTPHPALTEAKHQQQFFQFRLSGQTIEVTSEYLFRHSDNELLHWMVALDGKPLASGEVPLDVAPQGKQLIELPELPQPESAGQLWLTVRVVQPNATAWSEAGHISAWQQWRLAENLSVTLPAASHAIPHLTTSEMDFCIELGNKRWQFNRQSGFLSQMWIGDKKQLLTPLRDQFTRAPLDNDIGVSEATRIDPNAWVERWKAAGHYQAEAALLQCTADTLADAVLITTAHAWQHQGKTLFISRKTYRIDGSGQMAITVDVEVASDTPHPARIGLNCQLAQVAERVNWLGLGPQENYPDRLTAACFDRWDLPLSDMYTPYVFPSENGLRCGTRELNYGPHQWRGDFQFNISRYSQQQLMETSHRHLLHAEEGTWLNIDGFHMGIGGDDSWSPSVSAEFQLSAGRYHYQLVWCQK

[8] = molecular target: T3, Type-1 angiotensin II receptor (Homo sapiens, UniProt P30556); assay: AT1 receptor antagonists, dose response, selectivity assay for APJ receptor antagonist project, cell-based, uHTS hits (AID 463214); type: functional;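 note: antagonist potency against angiotensin II stimulated AT1 response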
T3 sequence (P30556 whole entry): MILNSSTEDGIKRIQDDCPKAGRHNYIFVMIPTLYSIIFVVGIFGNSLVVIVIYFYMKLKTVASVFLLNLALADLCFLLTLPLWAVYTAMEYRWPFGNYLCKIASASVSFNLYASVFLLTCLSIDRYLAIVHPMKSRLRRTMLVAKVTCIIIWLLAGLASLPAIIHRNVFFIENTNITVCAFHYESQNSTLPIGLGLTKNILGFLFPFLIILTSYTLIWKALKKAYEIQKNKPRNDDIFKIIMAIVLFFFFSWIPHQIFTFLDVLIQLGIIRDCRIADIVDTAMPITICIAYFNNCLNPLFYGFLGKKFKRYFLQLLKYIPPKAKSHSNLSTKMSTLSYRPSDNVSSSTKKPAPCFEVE

[9] = molecular target: T4, Polyadenylate-binding protein 1 (Homo sapiens, UniProt P11940); assay: PABP1 MLLE–PAM2 interaction inhibitors, dose response, miRNA deadenylation inhibitor project, biochemical, fluorescence polarization, Cy5-PAM2 peptide, secondary (AID 602260); type: functional; conditions: read-out: IC50_Mean
T4 sequence (P11940 whole entry): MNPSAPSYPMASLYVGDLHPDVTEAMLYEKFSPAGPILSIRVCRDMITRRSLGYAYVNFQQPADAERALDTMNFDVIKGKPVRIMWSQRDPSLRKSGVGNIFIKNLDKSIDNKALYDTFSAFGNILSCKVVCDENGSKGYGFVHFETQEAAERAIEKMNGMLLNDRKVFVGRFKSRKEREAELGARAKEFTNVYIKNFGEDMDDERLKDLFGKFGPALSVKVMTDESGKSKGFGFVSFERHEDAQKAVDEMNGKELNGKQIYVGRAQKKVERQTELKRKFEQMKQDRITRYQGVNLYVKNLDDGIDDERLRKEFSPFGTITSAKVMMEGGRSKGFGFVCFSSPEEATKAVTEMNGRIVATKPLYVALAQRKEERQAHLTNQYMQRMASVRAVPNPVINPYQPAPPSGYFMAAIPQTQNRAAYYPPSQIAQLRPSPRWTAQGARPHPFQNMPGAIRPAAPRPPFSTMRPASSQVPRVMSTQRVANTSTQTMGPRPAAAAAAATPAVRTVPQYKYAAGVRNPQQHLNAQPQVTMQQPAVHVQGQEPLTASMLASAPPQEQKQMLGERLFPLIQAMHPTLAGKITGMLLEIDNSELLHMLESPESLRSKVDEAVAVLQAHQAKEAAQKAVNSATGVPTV

[10] = molecular target: T4, Polyadenylate-binding protein 1; assay: PABP1 MLLE–PAM2 binding inhibitor potency, dose response, biochemical, fluorescence polarization, FITC-PAM2 peptide (AID 602259); type: functional; conditions: read-out: IC50_Mean
[11] = molecular target: Voltage-dependent T-type calcium channel subunit alpha-1H (Homo sapiens, UniProt O95180); type: functional;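 note: channel activity triggered by adding a high calcium stimulation buffer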
P388 = assay: cells; type: functional; conditions: Mus musculus
SN12K1 = assay: cells; type: functional; conditions: Homo sapiens
P388/ADR = assay: cells; type: functional; conditions: Mus musculus
[12] = test system: Streptococcus sp. 'group A'; assay: growth inhibition of control SK(-) GAS strain, dose response, counter-screen for streptokinase expression inhibitor project, luminescence, kanamycin, BacTiterGlo, confirmation (AID 1900); type: functional, organism-based
Streptococcus = assay: Group A Streptococcus viability loss, dose response, counter-screen for streptokinase expression inhibitor project, luminescence, BacTiterGlo (AID 1915); type: functional, organism-based;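 note: potency for reduction of bacterial viability or growth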

SMILES: COc1ccc(C)cc1NC(=O)C1CCN(S(=O)(=O)c2c(C)noc2C)CC1
- EC50 [1]: > 50 µM (active)

SMILES: NS(=O)(=O)c1ccc(CNC(=O)COc2ccc3c4c(c(=O)oc3c2)CCCC4)cc1
- EC50 [2]: > 99 µM (inactive)
- EC50 [3]: > 99 µM (inactive)

SMILES: C#CCN1C(=O)S/C(=C\c2ccc(N3CCOCC3)cc2C)C1=O
- EC50 [2]: > 99 µM (inactive)
- EC50 [3]: > 99 µM (inactive)

SMILES: Cc1cc(C)c2nc3nc(C)c(C)cc3c(N)c2c1
- AC50 [4]: 1.56 µM (active)

SMILES: CCN(CC)CCOC(=O)c1ccc(NC=C2C(=O)NC(=O)NC2=O)cc1
- IC50 [5]: > 100 µM (inactive)
- IC50 [6]: 22.4 µM (active)
- IC50 (Prothrombin): 32.4 µM (active)

SMILES: CC(=O)OCC1OC(C#CCC2CCCCC2)C=CC1OC(C)=O (centres undefined)
- AC50 (Cytochrome P450 3A4): 3.16 µM (inconclusive)

SMILES: CCc1ccccc1Nc1nc(N)nc(COC(=O)c2cccn2C)n1
- IC50 (cells): 13 µM (active)
- CC50 [7]: 17.3 µM (active)

SMILES: Cc1cccc2c1N(CCCOc1ccccc1)C(=O)C2=O
- EC50 (Beta-galactosidase): > 40 µM (inactive)
- IC50 [8]: > 40 µM (not active)

SMILES: Cc1ccc(C(=O)N/C(=C\c2ccc(C(C)C)cc2)C(=O)NCCCN2CCOCC2)cc1
- IC50 (cells): 14.6 µM (active)

SMILES: O=[N+]([O-])c1cc(C(F)(F)F)ccc1NCC1CCCO1 (centres undefined)
- EC50 [2]: > 99 µM (inactive)
- EC50 [3]: > 99 µM (inactive)

SMILES: CSc1nc2oc3c(c2c2nncn12)CC(C)(C)SC3
- IC50 [9]: > 66 µM (inactive)
- IC50 [10]: > 66 µM (inactive)

SMILES: COc1ccc(N(C(=O)Cn2cnc3ccccc32)C(C(=O)NC2CCCCC2)c2ccccc2)cc1 (centres undefined)
- EC50 [11]: 4.82 µM (active)

SMILES: Cn1cc(/C=N\O)nc2c(=O)n(-c3ccccc3)c(=O)nc1-2
- IC50 [9]: > 66 µM (inactive)
- IC50 [10]: > 66 µM (inactive)

SMILES: O=C(/C=C/c1ccc(Cl)cc1)c1cccs1
- AC50 (Cytochrome P450 3A4): 25.1 µM (inconclusive)

SMILES: CC(Nc1cccc2ccccc12)C(=O)N/N=C/c1ccc([N+](=O)[O-])cc1 (centres undefined)
- IC50 (cells): 22.1 µM (active)
- CC50 [7]: 21.8 µM (active)

SMILES: Clc1ccc2c(NCc3ccccn3)ccnc2c1
- EC50 [1]: > 50 µM (active)

SMILES: CCC1(c2ccc(N)cc2)CCC(=O)NC1=O (centres undefined) [AMINOGLUTETHIMIDE]
- GI50 (P388): 2390 µM (inactive)
- AC50 (Cytochrome P450 3A4): 31.6 µM (inconclusive)
- GI50 (SN12K1): 1690 µM (inactive)
- GI50 (P388/ADR): 1610 µM (inactive)

SMILES: O=C(O)c1cc(O)c2c(c1)C(=O)c1cc(O)cc(O)c1C2=O [EMODIC ACID]
- AC50 (Cytochrome P450 3A4): 15.8 µM (inconclusive)

SMILES: CC(C)=CCc1c2c(c3occ(-c4ccc(O)cc4)c(=O)c3c1O)C=CC(C)(C)O2 [OSAJIN]
- AC50 (Cytochrome P450 3A4): 25.1 µM (inconclusive)
- EC50 [12]: 1.11 µM (active)
- EC50 (Streptococcus): 1.47 µM (active)
